# Data: US11427567B2, “Imidazolyl pyrimidinylamine compounds as CDK2 inhibitors” (Incyte Corporation, priority 2019, dated 2022)
# Biological target: CDK2/Cyclin E1 (Homo sapiens (Human), UniProt P24941)
# Experiment: CDK2/Cyclin E1 HTRF enzyme activity assay (Example A)
# Assay type: biochemical
# Conditions: 1 mM ATP
# Description: Assays were conducted in white 384-well polystyrene plates in a final reaction volume of 8 μL. […] HTRF signals were read after 1 hour at room temperature on a PHERAstar FS plate reader (BMG Labtech). Data was analyzed with IDBS XLFit and GraphPad Prism 5.0 software using a three or four parameter dose response curve to determine IC50 for each compound.
row,IC50 [nM],SMILES
1,≤ 50,"Cc1nc(-c2nc(N[C@H]3CCN(S(C)(=O)=O)C[C@H]3F)ncc2C(F)(F)F)cn1-c1ccncc1F [Example 298, N-((3R,4S)-3-Fluoro-1-(methylsulfonyl)piperidin-4-yl)-4-(1-(3-fluoropyridin-4-yl)-2-methyl-1H-imidazol-4-yl)-5-(trifluoromethyl)pyrimidin-2-amine]"
2,≤ 50,"CC1(O)CN(Cc2ccc(-n3cnc(-c4nc(NC5CCN(S(C)(=O)=O)CC5)ncc4C(F)(F)F)c3)c(C(F)(F)F)c2)C1 [Example 449, 3-Methyl-1-(4-(4-(2-((1-(methylsulfonyl)piperidin-4-yl)amino)-5-(trifluoromethyl)pyrimidin-4-yl)-1H-imidazol-1-yl)-3-(trifluoromethyl)benzyl)azetidin-3-ol]"
3,≤ 50,"CS(=O)(=O)N1CCC(Nc2ncc(C(F)(F)F)c(-c3cn(-c4ccc(CNCC5CC5)cc4Cl)cn3)n2)CC1 [Example 191, 4-(1-(2-Chloro-4-(((cyclopropylmethyl)-amino)methyl)phenyl)-1H-imidazol-4-yl)-N-(1-(methylsulfonyl)-piperidin-4-yl)-5-(trifluoromethyl)-pyrimidin-2-amine]"
4,≤ 50,"CNCc1ccc(-n2cnc(-c3nc(NC4CCN(S(C)(=O)=O)CC4)ncc3C(F)(F)F)c2)c(C)c1 [Example 272, 4-(1-(2-Methyl-4-((methylamino)methyl)phenyl)-1H-imidazol-4-yl)-N-(1-(methylsulfonyl)piperidin-4-yl)-5-(trifluoromethyl)pyrimidin-2-amine]"
5,≤ 50,"CN1CCN(CCc2ccc(-n3cnc(-c4nc(NC5CCN(S(C)(=O)=O)CC5)ncc4C(F)(F)F)c3)c(Cl)c2)CC1=O [Example 159, 4-(3-Chloro-4-(4-(2-((1-(methylsulfonyl)-piperidin-4-yl)-amino)-5-(trifluoro-methyl)pyrimidin-4-yl)-1H-imidazol-1-yl)phenethyl)-1-methylpiperazin-2-one]"
6,≤ 50,CC(C)NCc1cc(F)c(-n2cnc(-c3nc(NC4CCN(S(C)(=O)=O)CC4)ncc3C(F)(F)F)c2)c(F)c1 [Example 348]
7,≤ 50,"CS(=O)(=O)N1CCC(Nc2ncc(C(F)(F)F)c(-c3cn(-c4cccnc4C#N)cn3)n2)CC1 [Example 34, 3-(4-(2-((1-(Methylsulfonyl)piperidin-4-yl)amino)-5-(trifluoromethyl)pyrimidin-4-yl)-1H-imidazol-1-yl)picolinonitrile]"
8,≤ 50,"CC(C)NCc1cc(F)c(-n2cnc(-c3nc(N[C@H]4CCN(S(C)(=O)=O)C[C@H]4F)ncc3C(F)(F)F)c2)c(F)c1 [Example 386, 4-(1-(2,6-Difluoro-4-((isopropylamino)methyl)phenyl)-1H-imidazol-4-yl)-N-((3R,4S)-3-fluoro-1-(methylsulfonyl)piperidin-4-yl)-5-(trifluoromethyl)pyrimidin-2-amine]"
9,≤ 50,"Cc1nc(-c2nc(NC3CCN(S(C)(=O)=O)CC3)ncc2C(F)(F)F)cn1-c1ccc(CCCN2CCC2)cc1F [Example 459, 4-(1-(4-(3-(Azetidin-1-yl)propyl)-2-fluorophenyl)-2-methyl-1H-imidazol-4-yl)-N-(1-(methylsulfonyl)piperidin-4-yl)-5-(trifluoromethyl)pyrimidin-2-amine]"
10,≤ 50,"CS(=O)(=O)N1CC[C@@H](Nc2ncc(C(F)(F)F)c(-c3cn(-c4c(F)cc(CN5CCC5)cc4Cl)cn3)n2)[C@H](F)C1 [Example 404, 4-(1-(4-(Azetidin-1-ylmethyl)-2-chloro-6-fluorophenyl)-1H-imidazol-4-yl)-N-((3R,4R)-3-fluoro-1-(methylsulfonyl)piperidin-4-yl)-5-(trifluoromethyl)pyrimidin-2-amine]"
11,≤ 50,"CC1CN(Cc2ccc(-n3cnc(-c4nc(N[C@H]5CCN(S(C)(=O)=O)C[C@H]5F)ncc4C(F)(F)F)c3)c(Cl)c2)C1 [Example 224, 4-(1-(2-Chloro-4-((3-methylazetidin-1-yl)methyl)phenyl)-1H-imidazol-4-yl)-N-((3R,4S)-3-fluoro-1-(methylsulfonyl)-piperidin-4-yl)-5-(trifluoromethyl)-pyrimidin-2-amine]"
